# Source: US20110129508A1 (priority 2008, published 2011)
# Read-outs that look alike come from different tables or passages of the source.
# Key:
# [1] = tested on: streptozotocin-induced diabetic neuropathy model of neuropathic pain; settings: rat, in vivo; for maximum non-sedating dose / reduction in hyperalgesia: iv
# [2] = rat, in vivo; for maximum non-sedating dose: iv
# [3] = tested on: carrageenan paw inflammation model; settings: rat, in vivo
# [4] = tested on: rat model of diabetic neuropathic pain; set-up: species or system rats; settings: in vivo
# [5] = dog, in vivo, iv
# [6] = in vivo; cited from earlier work
# [7] = tested on: rat model of prostate bone cancer pain; assay: animal or person; format: in vivo, Male Wistar rats; settings: rat, in vivo
Molecule,maximum non-sedating dose [1] [mg/kg],maximum non-sedating dose [2] [mg/kg],analgesic response compared to saline administration [3],duration of antinociceptive responses following injection of the bolus ([3]; ip) [h],antinociceptive effect [4],efficacy compared with gabapentin or morphine alone or in combination [1],reduction in hyperalgesia ([1]; 0.02 mg/kg),reduction in hyperalgesia ([1]; 2 mg/kg),adverse effects on cardiovascular function [5],toxicological or pathological effect [5],mean rest times [2] [s],toxicity on intravenous administration [6],reversal of the hyperalgesia caused by intratibial prostate bone cancer (FIG. 7) [7],antinociceptive effects ([7]; iv)
"CSCC[C@@H]1NC(=O)[C@H](CC(C)C)NC(=O)[C@H](CCCNC(=N)N)NC(=O)[C@H](CO)NC(=O)[C@@H]2CSSC[C@@H]3NC(=O)[C@H](CO)NC(=O)CNC(=O)[C@H]([C@@H](C)O)NC(=O)[C@H](CSSC[C@H](N)C(=O)N[C@@H](CCCCN)C(=O)NCC(=O)N[C@@H](CCCCN)C(=O)NCC(=O)N[C@@H](C)C(=O)N[C@@H](CCCCN)C(=O)N2)NC(=O)[C@H](CSSC[C@@H](C(N)=O)NC(=O)[C@H](CCCCN)NC(=O)CNC(=O)[C@H](CO)NC(=O)[C@H](CCCNC(=N)N)NC3=O)NC(=O)[C@H](CC(=O)O)NC(=O)[C@H](Cc2ccc(O)cc2)NC1=O [MVIIA, ziconotide]",0.02,0.02,–,–,–,–,–,–,–,–,–,–,–,–
leconotide [CVID],2.0,2,effective at inducing an analgesic response,4 to 6,dose related antinociceptive effects,improved efficacy,approximately 30%,greater than 50%,no adverse effects on cardiovascular function,no toxicological or pathological effect was observed,982.89,less toxic than ziconotide,"small, statistically non-significant reversal",no significant antinociceptive effects
